For one assay, the target named is T1, KIT (Homo sapiens, UniProt P10721).
T1 construct: made in house
As to the kind of experiment: Competition binding assay, KIT Kd. As to the method:
(§1) Competition binding assays used herein were developed, validated and performed as described in Fabian et al., Nature Biotechnology 2005, 23, 329-336. Kinases were produced as fusions to T7 phage (See, Fabian et al. or WO04/015142) or alternatively, the kinases were expressed in HEK-293 cells and subsequently tagged with DNA for PCR detection (See, WO08/005310). For the binding assays, streptavidin-coated magnetic beads were treated with biotinylated affinity ligands for 30 min at room temperature to generate affinity resins. The liganded beads were blocked with excess biotin and washed with blocking buffer (SeaBlock (Pierce), 1% BSA, 0.05% Tween 20, 1 mM DTT) to remove unbound ligand and to reduce non-specific binding. Binding reactions were assembled by combining kinase, liganded affinity beads, and test compounds in 1× binding buffer (20% SeaBlock, 0.17×PBS, 0.05% Tween 20, 6 mM DTT). Test compounds were prepared as 100× stocks in DMSO and diluted into the aqueous environment. Kds were determined using an eleven point threefold serial dilutions. DMSO or control compounds were was added to control assays lacking a test compound. Primary screen assays were performed in polypropylene 384-well plates in a final volume of 20-40 μL, while Kd determinations were performed in polystyrene 96-well plates in a final volume of 135 μL. The assay plates were incubated at room temperature with shaking for 1 hour to allow the binding reactions to reach equilibrium, and the affinity beads were washed extensively with wash buffer (1×PBS, 0.05% Tween 20) to remove unbound protein. The beads were then resuspended in elution buffer (1×PBS, 0.05% Tween […] non-biotinylated affinity ligand) and incubated at room temperature with shaking for 30 min. The kinase concentration in the eluates was measured by quantitative PCR.

The target in a further assay is T2, FLT3 (Homo sapiens, UniProt P36888).
T2 construct: made in house
T2 sequence (P36888 27-993): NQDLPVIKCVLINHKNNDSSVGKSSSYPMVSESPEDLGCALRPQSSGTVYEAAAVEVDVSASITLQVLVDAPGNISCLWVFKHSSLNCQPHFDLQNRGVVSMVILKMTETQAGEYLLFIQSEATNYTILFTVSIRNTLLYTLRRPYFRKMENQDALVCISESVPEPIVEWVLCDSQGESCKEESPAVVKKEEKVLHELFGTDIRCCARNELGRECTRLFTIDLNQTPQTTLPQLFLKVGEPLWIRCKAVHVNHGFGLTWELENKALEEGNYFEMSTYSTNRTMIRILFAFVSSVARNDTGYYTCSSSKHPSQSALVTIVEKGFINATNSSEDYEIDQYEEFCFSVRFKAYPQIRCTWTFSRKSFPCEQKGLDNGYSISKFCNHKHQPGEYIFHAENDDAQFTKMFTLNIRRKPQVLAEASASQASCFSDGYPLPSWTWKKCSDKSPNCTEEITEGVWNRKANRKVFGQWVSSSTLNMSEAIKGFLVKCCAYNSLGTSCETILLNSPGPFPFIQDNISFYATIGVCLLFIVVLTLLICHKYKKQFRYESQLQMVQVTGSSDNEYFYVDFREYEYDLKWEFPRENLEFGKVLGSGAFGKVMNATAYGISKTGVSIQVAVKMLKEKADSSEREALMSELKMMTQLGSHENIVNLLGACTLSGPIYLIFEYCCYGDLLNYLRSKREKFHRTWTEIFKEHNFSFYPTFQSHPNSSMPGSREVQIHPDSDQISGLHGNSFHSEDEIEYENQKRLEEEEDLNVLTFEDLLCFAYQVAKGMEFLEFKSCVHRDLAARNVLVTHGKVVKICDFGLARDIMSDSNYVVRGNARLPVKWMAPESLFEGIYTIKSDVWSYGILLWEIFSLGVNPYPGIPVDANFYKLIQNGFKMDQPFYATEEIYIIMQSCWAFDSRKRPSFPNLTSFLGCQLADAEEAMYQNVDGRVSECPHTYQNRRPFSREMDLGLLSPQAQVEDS
The assay is described as follows: Competition binding assay, FLT3 Kd. As to the method:
as §1

Assay [1] deals with T3, CSF1R (Homo sapiens, UniProt P07333). The assay is described as follows: HEK293 CSF1R phosphorylation MSD assay. The format is cell-based. Also noted: expressed in transfected cells; host or cells: HEK293. The note with it: 2 h compound, human M-CSF 50 ng/mL for 5 min; read-out: HEK293 pCSF1R M-CSF MSD:IC50. The procedure: The compounds disclosed herein were tested in a CSF1R phosphorylation assay to determine their cellular potency against CSF1R. A HEK293 cell line expressing CSF1R fused to FK506 binding protein (FKBP) as a molecular tag was generated. Inhibition of CSF1R kinase activity will prevent ligand-stimulated autophosphorylation of the CSF1R-FKBP in intact cells. Subsequent cell lysates are assayed in a sandwich ELISA employing the electrochemiluminescent Meso Scale Discovery (MSD) technology for the presence of the phosphorylated (p)CSF1R-FKBP. This assay determines the potency of compounds as CSF1R inhibitors by measuring the reduction in the amount of pCSF1R with increasing doses of compounds added to the cells prior to M-CSF stimulation.
T3 sequence (P07333 20-972): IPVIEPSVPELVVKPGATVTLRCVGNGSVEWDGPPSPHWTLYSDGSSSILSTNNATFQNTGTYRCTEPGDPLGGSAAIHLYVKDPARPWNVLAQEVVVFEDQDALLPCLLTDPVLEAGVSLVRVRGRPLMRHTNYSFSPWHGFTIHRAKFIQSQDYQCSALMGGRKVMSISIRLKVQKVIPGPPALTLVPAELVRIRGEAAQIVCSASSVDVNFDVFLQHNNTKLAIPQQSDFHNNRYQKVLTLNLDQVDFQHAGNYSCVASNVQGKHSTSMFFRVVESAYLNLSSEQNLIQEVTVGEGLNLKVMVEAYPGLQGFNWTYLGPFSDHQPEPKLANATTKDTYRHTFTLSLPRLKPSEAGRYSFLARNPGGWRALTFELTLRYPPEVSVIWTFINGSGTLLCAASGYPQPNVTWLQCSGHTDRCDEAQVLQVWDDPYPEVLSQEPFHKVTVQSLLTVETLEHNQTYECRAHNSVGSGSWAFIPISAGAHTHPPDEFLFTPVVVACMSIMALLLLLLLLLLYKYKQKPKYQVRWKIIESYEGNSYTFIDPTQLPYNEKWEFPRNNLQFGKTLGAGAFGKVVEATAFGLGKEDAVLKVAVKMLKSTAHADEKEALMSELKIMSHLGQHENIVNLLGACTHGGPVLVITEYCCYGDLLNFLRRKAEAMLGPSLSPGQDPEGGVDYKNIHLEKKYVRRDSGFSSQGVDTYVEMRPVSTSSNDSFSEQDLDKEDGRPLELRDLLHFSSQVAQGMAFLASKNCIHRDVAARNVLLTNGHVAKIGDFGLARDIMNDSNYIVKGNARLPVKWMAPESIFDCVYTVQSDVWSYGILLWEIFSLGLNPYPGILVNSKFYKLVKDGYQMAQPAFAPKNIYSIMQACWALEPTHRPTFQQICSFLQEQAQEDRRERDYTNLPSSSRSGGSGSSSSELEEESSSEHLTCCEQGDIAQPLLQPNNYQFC
On day one of the experiment, HEK293-CSF1R-FKPB cells, maintained in DMEM, with L-glutamine (Mediatech), 10% FBS, and 100 units/mL Penicillin/Streptomycin, were seeded at 50,000 cell/well in a volume of 100 μL per well in 96-well Cell Bind plates (Costar). The cells were cultured overnight at 37° C. under 5% CO2. To prepare the plates used in the MSD assay, a 330 nM biotin-FK506 (in TBS pH 7.2) solution was added at 30 μL per well to streptavidin-coated 96-well plates (MSD), and incubated overnight at room temperature, shaking at 500 rpm on an orbital shaker.
On day two, compounds diluted in DMSO were added to the cells in duplicate plates at 9 different concentrations with half-log intervals, plus DMSO only control, alongside a reference compound serving as a positive control. Final DMSO concentration was 0.5% in a volume of 200 μL per well. The compounds were allowed to incubate with the cells for 2 h at 37° C. under 5% CO2. At the end of the incubation, human M-CSF (R&D Systems) was added for 5 min to a final concentration of 50 ng/mL to stimulate CSF1R phosphorylation. Cells were lysed for 20 min, and the lysates were applied to the washed, FK506-coated MSD plates, and incubated overnight at 4° C. shaking at 500 rpm.
On day three, the MSD plates were washed, and the captured CSF1R-FKBP was assayed sequentially for phosphorylation using mouse anti-phosphotyrosine antibody (Millipore) and Sulfo-TAG goat anti-mouse IgG antibody (MSD), and detected on a Sector Imager 6000 instrument (MSD).
A single IC50 value for each compound was determined by averaging the IC50s of the duplicates calculated using Igor Pro 6 software, and represents the compound concentration that achieves a 50% inhibition of ligand-induced CSF1R phosphorylation compared to DMSO control.

In assay [2] the target is T3, CSF1R. The assay is described as follows: Competition binding assay, CSF1R Kd. Also noted: made in house. The procedure: as §1
The next assay addresses T4, PDGFRβ (Homo sapiens, UniProt P09619).
T4 construct: made in house
As to the kind of experiment: Competition binding assay, PDGFRβ Kd. The procedure:
as §1

Another assay deals with M-NFS-60 cells. The assay is described as follows: M-NFS-60 cell proliferation assay (Alamar Blue). The format is cell-based, mouse. The conditions noted are these: Mus musculus; 72 hours incubation, M-CSF 20 ng/mL; read-out: CSF1R M-NFS-60 CTB:IC50. As to the method: The compounds disclosed herein were tested in an M-NFS-60 cell proliferation assay to determine their cellular potency against CSF1R. M-NFS-60s are mouse monocytic cells that depend on the binding of the ligand M-CSF to its receptor, CSF1R, to proliferate. Inhibition of CSF1R kinase activity will cause reduced growth and/or cell death. This assay assesses the potency of compounds as CSF1R inhibitors by measuring the reduction of Alamar Blue reagent by viable cells.
On day one of the experiment, M-NFS-60 cells were maintained in RPMI complete medium (Omega Scientific) plus 10% FBS supplemented with 20 ng/mL of M-CSF (R&D Systems). 96-well TC-treated, flat bottom plates were seeded at 10,000 cell/well at a volume of 100 μL per well. The cells were cultured overnight at 37° C. under 5% CO2.
On day two, compounds were added to the cells at 9 different concentrations, with half-log intervals alongside a control reference compound serving as a positive control. Final DMSO concentration was kept at 0.5% for a final volume of 200 μL. The compounds were allowed to incubate with the cells for 72 hours at 37° C. under 5% CO2.
On day five of the experiment, 40 μl of Alamar Blue reagent was added to each well and allowed to incubate for 3 hours. Alamar Blue fluorescence was read using SoftMax Pro software at 560 nm (excitation) and 590 nm (emission). IC50s were generated as an average of duplicates and represents the concentration of test compound that achieves 50% inhibition of cellular proliferation compared to control.
On the technique in general: The colour change of resazurin is a common sign of viable cells or microbes.

Among the data in patent US9938261B2, “Heterocyclic compounds and methods of use thereof” (AMBIT BIOSCIENCES CORPORATION, priority 2011, dated 2018) are Kd and IC50 values, retold here.

T1 sequence (P10721 26-976): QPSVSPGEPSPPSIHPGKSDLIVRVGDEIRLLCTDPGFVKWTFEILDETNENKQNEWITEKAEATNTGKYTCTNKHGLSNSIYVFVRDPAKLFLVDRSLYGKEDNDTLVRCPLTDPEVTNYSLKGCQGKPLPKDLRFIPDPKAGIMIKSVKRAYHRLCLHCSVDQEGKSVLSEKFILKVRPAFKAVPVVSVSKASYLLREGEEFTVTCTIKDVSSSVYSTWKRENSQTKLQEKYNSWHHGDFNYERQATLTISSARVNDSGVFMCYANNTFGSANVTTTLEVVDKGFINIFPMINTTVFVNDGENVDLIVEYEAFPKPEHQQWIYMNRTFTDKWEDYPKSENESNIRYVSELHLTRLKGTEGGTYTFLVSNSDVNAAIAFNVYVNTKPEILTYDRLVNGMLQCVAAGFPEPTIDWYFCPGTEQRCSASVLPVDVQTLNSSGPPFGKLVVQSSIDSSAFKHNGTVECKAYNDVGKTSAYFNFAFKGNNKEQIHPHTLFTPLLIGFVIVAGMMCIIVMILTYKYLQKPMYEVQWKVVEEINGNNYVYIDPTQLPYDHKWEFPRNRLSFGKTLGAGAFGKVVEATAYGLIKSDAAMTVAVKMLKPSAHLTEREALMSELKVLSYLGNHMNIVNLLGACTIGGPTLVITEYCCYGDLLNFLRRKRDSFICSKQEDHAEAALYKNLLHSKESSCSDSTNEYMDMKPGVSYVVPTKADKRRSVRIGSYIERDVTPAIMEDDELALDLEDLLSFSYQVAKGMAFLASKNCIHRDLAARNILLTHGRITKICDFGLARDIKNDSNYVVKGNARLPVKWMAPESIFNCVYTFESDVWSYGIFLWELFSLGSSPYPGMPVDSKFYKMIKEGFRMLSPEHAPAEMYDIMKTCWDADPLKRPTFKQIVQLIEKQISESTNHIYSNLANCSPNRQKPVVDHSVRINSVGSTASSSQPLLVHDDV
T4 sequence (P09619 33-1106): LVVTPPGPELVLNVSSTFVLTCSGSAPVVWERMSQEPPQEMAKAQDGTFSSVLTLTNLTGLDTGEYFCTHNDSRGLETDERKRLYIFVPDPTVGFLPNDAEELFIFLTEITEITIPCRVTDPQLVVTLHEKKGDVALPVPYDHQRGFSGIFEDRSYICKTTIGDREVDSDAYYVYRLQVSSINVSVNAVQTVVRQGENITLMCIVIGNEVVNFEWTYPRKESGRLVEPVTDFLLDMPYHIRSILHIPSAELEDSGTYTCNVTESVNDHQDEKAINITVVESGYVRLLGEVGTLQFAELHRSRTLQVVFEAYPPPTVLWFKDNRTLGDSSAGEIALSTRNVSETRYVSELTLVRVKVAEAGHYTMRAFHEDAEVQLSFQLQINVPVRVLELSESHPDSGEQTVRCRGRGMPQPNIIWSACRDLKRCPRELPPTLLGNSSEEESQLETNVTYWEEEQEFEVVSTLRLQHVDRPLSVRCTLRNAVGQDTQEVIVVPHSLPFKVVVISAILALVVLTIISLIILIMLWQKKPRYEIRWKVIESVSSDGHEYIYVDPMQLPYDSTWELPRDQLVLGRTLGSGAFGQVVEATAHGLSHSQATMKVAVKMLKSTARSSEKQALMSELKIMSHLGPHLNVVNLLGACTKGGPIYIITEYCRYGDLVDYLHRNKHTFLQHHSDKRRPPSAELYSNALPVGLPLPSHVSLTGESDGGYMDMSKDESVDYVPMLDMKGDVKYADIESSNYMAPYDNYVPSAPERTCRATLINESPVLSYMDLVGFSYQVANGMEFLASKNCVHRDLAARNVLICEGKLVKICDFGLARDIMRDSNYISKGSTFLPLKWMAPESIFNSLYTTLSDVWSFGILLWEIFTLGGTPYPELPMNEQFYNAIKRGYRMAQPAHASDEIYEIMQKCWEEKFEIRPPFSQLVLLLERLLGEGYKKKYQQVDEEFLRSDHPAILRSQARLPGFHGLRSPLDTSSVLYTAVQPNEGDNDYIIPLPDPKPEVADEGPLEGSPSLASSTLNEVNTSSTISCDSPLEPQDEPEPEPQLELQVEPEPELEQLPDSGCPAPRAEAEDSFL

A word on the Kd: it is the equilibrium constant for the complex coming apart. High values mean a looser complex, low ones a tighter complex. Broadly, the IC50 is the concentration at which inhibition is half-maximal. For the compound `COc1cc2ncn(Cc3ccc4nc(NC[C@H]5CCCO5)sc4c3)c2cc1OC` [Example 8, (R)-6-((5,6-dimethoxy-1H-benzo[d]imidazol-1-yl)methyl)-N-((tetrahydrofuran-2-yl)methyl)benzo[d]thiazol-2-amine], the Kd at KIT was in the range of 500 to 2000 nM; at FLT3, 1000 to 5000 nM; at CSF1R [2] it was 5 to 20 nM; on PDGFRβ it was 500 to 2000 nM. The IC50 on CSF1R [1] was 200 to 500 nM; in the assay with M-NFS-60 cells it was > 1500 nM.

`COc1cc2ncn(Cc3ccc4nc(NCc5ccccn5)sc4c3)c2cc1OC` [Example 9, 6-((5,6-dimethoxy-1H-benzo[d]imidazol-1-yl)methyl)-N-(pyridin-2-ylmethyl)benzo[d]thiazol-2-amine]: the dissociation constant Kd on KIT was in the range of 500 to 2000 nM; at FLT3 it was 1000 to 5000 nM; on CSF1R [2], 20 to 50 nM; at PDGFRβ it was 500 to 2000 nM. For the same compound, the IC50 on CSF1R [1] is 200 to 500 nM; in the assay on M-NFS-60 cells it was > 1500 nM.

Take `COc1cc2ncn(Cc3ccc4nc(N[C@@H]5c6ccccc6C[C@@H]5O)sc4c3)c2cc1OC` [Example 10, (1R,2S)-1-((6-((5,6-dimethoxy-1H-benzo[d]imidazol-1-yl)methyl)benzo[d]thiazol-2-yl)amino)-2,3-dihydro-1H-inden-2-ol]: the Kd lay within 500 to 2000 nM at KIT, 1000 to 5000 nM on FLT3, 5 to 20 nM on CSF1R [2] and 50 to 500 nM at PDGFRβ. The IC50 at CSF1R [1] was 200 to 500 nM; in the assay on M-NFS-60 cells it was 400 to 1500 nM.

As to `COc1cc2ncn(Cc3ccc4nc(N[C@H]5CCc6ccccc65)sc4c3)c2cc1OC` [Example 11, (S)—N-(2,3-dihydro-1H-inden-1-yl)-6-((5,6-dimethoxy-1H-benzo[d]imidazol-1-yl)methyl)benzo[d]thiazol-2-amine], the Kd at KIT was 100 to 500 nM; at FLT3 it was 200 to 1000 nM; on CSF1R [2], 5 to 20 nM; at PDGFRβ, 50 to 500 nM. Moreover, the results for the IC50 on CSF1R [1] and with M-NFS-60 cells were 200 to 500 nM and 400 to 1500 nM, respectively.

For `COC(c1ccc2nc(N[C@@H]3CCCC[C@H]3O)sc2c1)c1c[nH]c2ncccc12` (stereo partly drawn) [Example 12, (1R,2R)-2-((6-(methoxy(1H-pyrrolo[2,3-b]pyridin-3-yl)methyl)benzo[d]thiazol-2-yl)amino)cyclohexanol], the Kd on KIT was > 2000 nM; at FLT3, 1000 to 5000 nM; on CSF1R [2], > 50 nM; at PDGFRβ, > 2000 nM. The IC50 on CSF1R [1] was 200 to 500 nM; with M-NFS-60 cells it was > 1500 nM.

In the case of `COc1cc2ncn(Cc3ccc4nc(NCc5ccccc5)sc4c3)c2cc1OC` [Example 13, N-benzyl-6-((5,6-dimethoxy-1H-benzo[d]imidazol-1-yl)methyl)benzo[d]thiazol-2-amine], the dissociation constant (Kd) at KIT was 100 to 500 nM; on FLT3, 1000 to 5000 nM; on CSF1R [2], 5 to 20 nM; on PDGFRβ, 50 to 500 nM. The IC50 at CSF1R [1] lay within 50 to 200 nM; in the assay on M-NFS-60 cells, 400 to 1500 nM.

For the compound `COc1cc2ncn(Cc3ccc4nc(NCCN5CCOCC5)sc4c3)c2cc1OC` [Example 14, 6-((5,6-dimethoxy-1H-benzo[d]imidazol-1-yl)methyl)-N-(2-morpholinoethyl)benzo[d]thiazol-2-amine], the Kd on KIT was > 2000 nM; at FLT3, 1000 to 5000 nM; at CSF1R [2], > 50 nM; on PDGFRβ, 500 to 2000 nM. Also, the IC50 on CSF1R [1] is > 500 nM; in the assay on M-NFS-60 cells, > 1500 nM.

With `COc1cc2ncn(Cc3ccc4nc(NC5CCOCC5)sc4c3)c2cc1OC` [Example 15, 6-((5,6-dimethoxy-1H-benzo[d]imidazol-1-yl)methyl)-N-(tetrahydro-2H-pyran-4-yl)benzo[d]thiazol-2-amine], the Kd is 500 to 2000 nM at KIT, > 5000 nM at FLT3, 20 to 50 nM at CSF1R [2] and > 2000 nM on PDGFRβ. The IC50 was 200 to 500 nM at CSF1R [1] and > 1500 nM with M-NFS-60 cells.

Take `COc1cc2ncn(Cc3ccc4nc(N(C)C5CCCCC5)sc4c3)c2cc1OC` [Example 16, N-cyclohexyl-6-((5,6-dimethoxy-1H-benzo[d]imidazol-1-yl)methyl)-N-methylbenzo[d]thiazol-2-amine]: the Kd on KIT lay in the range of 100 to 500 nM; at FLT3, 200 to 1000 nM; at CSF1R [2], 20 to 50 nM; at PDGFRβ, 500 to 2000 nM. The IC50 on CSF1R [1] is 200 to 500 nM; in the assay on M-NFS-60 cells, > 1500 nM.
